Laboratory results from patent US20140038989A1, “TETRAHYDROPYRAZOLO [1,5-A] PYRIMIDINE AS ANTI-TUBERCULOSIS COMPOUNDS” (Glaxo Group Limited, priority 2011, published 2014).
Values after ≈ are worked out from the molar mass of the structure shown.

Test system: Mycobacterium tuberculosis H37Rv
Assay: Mycobacterium tuberculosis H37Rv Inhibition Assay (Whole Cell Assay)
Assay type: cell-based
Details: ATCC 25618 / H37Rv, H37Rv strain (ATCC25618), Middlebrook 7H9, six days at 37° C., resazurin fluorescence after 48 hours

Row | SMILES | MIC
1 | CCc1ccc([C@H]2C[C@@H](C(F)(F)F)n3ncc(C(=O)NCc4ccc(Cl)cn4)c3N2)cc1 (relative stereo) [Example 75, Cis-N-((5-chloropyridin-2-yl)methyl)-5-(4-ethylphenyl)-7-(trifluoromethyl)-4,5,6,7-tetrahydropyrazolo[1,5-a]pyrimidine-3-carboxamide] | 1 to 2 µM (≈ 0.464 to 0.928 µg/mL)
2 | CCc1ccc([C@H]2C[C@@H](C(F)(F)F)n3ncc(C(=O)NCc4ccc(Cl)nc4)c3N2)cc1 (relative stereo) [Example 76, Cis-N-((6-chloropyridin-3-yl)methyl)-5-(4-ethylphenyl)-7-(trifluoromethyl)-4,5,6,7-tetrahydropyrazolo[1,5-a]pyrimidine-3-carboxamide] | 1 to 2 µM (≈ 0.464 to 0.928 µg/mL)
3 | CCc1ccc([C@H]2C[C@@H](C(F)(F)F)n3ncc(C(=O)NCc4ccc(F)c(C)n4)c3N2)cc1 (relative stereo) [Example 77, Cis-5-(4-ethylphenyl)-N-((5-fluoro-6-methylpyridin-2-yl)methyl)-7-(trifluoromethyl)-4,5,6,7-tetrahydropyrazolo[1,5-a]pyrimidine-3-carboxamide] | 1 to 2 µM (≈ 0.461 to 0.923 µg/mL)
4 | CCc1ccc([C@H]2C[C@@H](C(F)(F)F)n3ncc(C(=O)NCc4ccc(OC)cc4)c3N2)cc1 (single isomer, unassigned) [Example 1a] | ≤ 1 µM
5 | CCc1ccc([C@@H]2C[C@H](C(F)(F)F)n3ncc(C(=O)NCc4ccc(OC)cc4)c3N2)cc1 (single isomer, unassigned) [Example 1b] | > 2 µM
6 | CCc1ccc([C@H]2C[C@@H](C(F)(F)F)n3ncc(C(=O)NCc4ccco4)c3N2)cc1 (single isomer, unassigned) [Example 7a] | ≤ 1 µM
7 | CCc1ccc([C@@H]2C[C@H](C(F)(F)F)n3ncc(C(=O)NCc4ccco4)c3N2)cc1 (single isomer, unassigned) [Example 7b] | > 2 µM
8 | O=C(NCc1ccco1)c1cnn2c1NC(c1ccc(Br)cc1)CC2C(F)(F)F (stereo not drawn) [57′, 5-(4-bromophenyl)-N-(furan-2-ylmethyl)-7-(trifluoromethyl)-4,5,6,7-tetrahydropyrazolo[1,5-a]pyrimidine-3-carboxamide, reference compound] | > 2 µM
9 | CCc1ccc(C2CC(C(F)(F)F)n3ncc(C(=O)NCc4ccc5c(c4)OCO5)c3N2)cc1 (stereo not drawn) [Example 37, N-(benzo[d][1,3]dioxol-5-ylmethyl)-5-(4-ethylphenyl)-7-(trifluoromethyl)-4,5,6,7-tetrahydropyrazolo[1,5-a]pyrimidine-3-carboxamide] | ≤ 1 µM
10 | Cc1ccc(C2CC(C(F)(F)F)n3ncc(C(=O)NCc4ccc5c(c4)OCO5)c3N2)cc1 (stereo not drawn) [Example 38, N-(benzo[d][1,3]dioxol-5-ylmethyl)-5-(p-tolyl)-7-(trifluoromethyl)-4,5,6,7-tetrahydropyrazolo[1,5-a]pyrimidine-3-carboxamide] | ≤ 1 µM
11 | COc1ccc(CNC(=O)c2cnn3c2NC(c2ccc(C)cc2)CC3C(F)(F)F)cc1 (stereo not drawn) [Example 39, N-(4-methoxybenzyl)-5-(p-tolyl)-7-(trifluoromethyl)-4,5,6,7-tetrahydropyrazolo[1,5-a]pyrimidine-3-carboxamide] | ≤ 1 µM
12 | CCc1ccc(C2CC(C(F)(F)F)n3ncc(C(=O)NCc4cccs4)c3N2)cc1 (stereo not drawn) [Example 40, 5-(4-ethylphenyl)-N-(thiophen-2-ylmethyl)-7-(trifluoromethyl)-4,5,6,7-tetrahydropyrazolo[1,5-a]pyrimidine-3-carboxamide] | ≤ 1 µM
13 | COc1ccc(C2CC(C(F)(F)F)n3ncc(C(=O)NCc4ccc5c(c4)OCO5)c3N2)cc1 (stereo not drawn) [Example 41, N-(benzo[d][1,3]dioxol-5-ylmethyl)-5-(4-methoxyphenyl)-7-(trifluoromethyl)-4,5,6,7-tetrahydropyrazolo[1,5-a]pyrimidine-3-carboxamide] | ≤ 1 µM
14 | Cc1ccc(CNC(=O)c2cnn3c2NC(c2ccc(C)cc2)CC3C(F)F)cc1 (stereo not drawn) [Example 51, 7-(difluoromethyl)-N-(4-methylbenzyl)-5-(p-tolyl)-4,5,6,7-tetrahydropyrazolo[1,5-a]pyrimidine-3-carboxamide] | > 2 µM
15 | Cc1ccc(C2CC(C(F)(F)F)n3ncc(C(=O)NCc4ccccc4Cl)c3N2)cc1 (stereo not drawn) [Example 52, N-(2-chlorobenzyl)-5-(p-tolyl)-7-(trifluoromethyl)-4,5,6,7-tetrahydropyrazolo[1,5-a]pyrimidine-3-carboxamide] | > 2 µM
16 | COc1ccc(C2CC(C(F)(F)F)n3ncc(C(=O)NCc4ccccc4)c3N2)cc1 (stereo not drawn) [Example 53, N-benzyl-5-(4-methoxyphenyl)-7-(trifluoromethyl)-4,5,6,7-tetrahydropyrazolo[1,5-a]pyrimidine-3-carboxamide] | > 2 µM
17 | COc1ccc(CNC(=O)c2cnn3c2NC(c2ccc(OC)cc2)CC3C(F)(F)F)cc1 (stereo not drawn) [Example 54, N-(4-methoxybenzyl)-5-(4-methoxyphenyl)-7-(trifluoromethyl)-4,5,6,7-tetrahydropyrazolo[1,5-a]pyrimidine-3-carboxamide] | > 2 µM
18 | Cc1ccc(C2CC(C(F)F)n3ncc(C(=O)NCc4ccccc4C(F)(F)F)c3N2)cc1 (stereo not drawn) [Example 55, 7-(difluoromethyl)-5-(p-tolyl)-N-(2-(trifluoromethyl)benzyl)-4,5,6,7-tetrahydropyrazolo[1,5-a]pyrimidine-3-carboxamide] | > 2 µM
19 | CCc1ccc([C@H]2C[C@@H](C(F)(F)F)n3ncc(C(=O)NCc4ncc(F)cc4F)c3N2)cc1 [Example 101, (5R,7S)—N-((3,5-difluoropyridin-2-yl)methyl)-5-(4-ethylphenyl)-7-(trifluoromethyl)-4,5,6,7-tetrahydropyrazolo[1,5-a]pyrimidine-3-carboxamide] | ≤ 1 µM
20 | CCc1ccc([C@H]2C[C@@H](C(F)(F)F)n3ncc(C(=O)NCc4ccc(OC)nc4)c3N2)cc1 [Example 102, (5R,7S)-5-(4-ethylphenyl)-N-((6-methoxypyridin-3-yl)methyl)-7-(trifluoromethyl)-4,5,6,7-tetrahydropyrazolo[1,5-a]pyrimidine-3-carboxamide] | ≤ 1 µM
21 | CCc1ccc([C@H]2C[C@@H](C(F)(F)F)n3ncc(C(=O)NCc4ccc(Cl)nc4)c3N2)cc1 [Example 103, (5R,7S)—N-((6-chloropyridin-3-yl)methyl)-5-(4-ethylphenyl)-7-(trifluoromethyl)-4,5,6,7-tetrahydropyrazolo[1,5-a]pyrimidine-3-carboxamide] | ≤ 1 µM
22 | CCc1ccc([C@H]2C[C@@H](C(F)(F)F)n3ncc(C(=O)NCc4cnc(OC)c(F)c4)c3N2)cc1 [Example 104, (5R,7S)-5-(4-ethylphenyl)-N-((5-fluoro-6-methoxypyridin-3-yl)methyl)-7-(trifluoromethyl)-4,5,6,7-tetrahydropyrazolo[1,5-a]pyrimidine-3-carboxamide] | ≤ 1 µM
23 | CCc1ccc([C@H]2C[C@@H](C(F)(F)F)n3ncc(C(=O)NCc4ccc(F)c(C)n4)c3N2)cc1 [Example 105, (5R,7S)-5-(4-ethylphenyl)-N-((5-fluoro-6-methylpyridin-2-yl)methyl)-7-(trifluoromethyl)-4,5,6,7-tetrahydropyrazolo[1,5-a]pyrimidine-3-carboxamide] | ≤ 1 µM
24 | CCc1ccc([C@H]2C[C@@H](C(F)(F)F)n3ncc(C(=O)NCc4ncc(C)cc4F)c3N2)cc1 [Example 106, (5R,7S)-5-(4-ethylphenyl)-N-((3-fluoro-5-methylpyridin-2-yl)methyl)-7-(trifluoromethyl)-4,5,6,7-tetrahydropyrazolo[1,5-a]pyrimidine-3-carboxamide] | 1 to 2 µM (≈ 0.461 to 0.923 µg/mL)
